Tested on: respiratory syncytial virus Long strain
Assay: Antiviral activity against respiratory syncytial virus, MTT cell protection assay in HEp-2 cells
Type: cell-based
Settings: HEp-2 cells infected with RSV Long strain, MTT staining
Method: The antiviral activity of these compounds against respiratory syncytial virus was determined in HEp-2 (ATCC CCL 23) cells that were seeded in 96 well microtiter plates at 1.5×10^4 cells/100 μL/well in DMEM (Dulbecco's Modified Eagle's Medium) supplemented with penicillin, streptomycin, glutamine, and 10% fetal bovine serum. The cells were incubated overnight at 37° C., the culture medium was removed, and cells were infected (100 μL volume in medium containing 2% fetal bovine serum) with respiratory syncytial virus Long strain at 5000 plaque forming units/mL. The compounds, 100 μL at appropriate dilution, were added to the cells 1 hour post infection. After incubation for 4 days at 37° C., the plates were stained with MTT solution (3-[4,5-dimethlythiazol-2-yl]-2,5-diphenyltetrazolium bromide) and incubated for 4 hours at 37° C. The media was aspirated from the cells and 100 μL/well of acidified isopropanol (per liter: 900 mL isopropanol, 100 mL Triton X100, and 4 mL conc. HCl) was added. Plates were incubated for 15 minutes at room temperature with shaking, and an optical density (OD 540) reading at 540 nanometer (nm) was obtained. The optical density reading is proportional to the number of viable cells. The increase in the number of viable cells reflects the protective, antiviral activity of the compound. […]

## NC(=O)c1ncn([C@@H]2O[C@H](CO)[C@@H](O)[C@H]2O)n1 [Ribavirin]
At 2.5 μg/mL (corresponding to 10.2 μM)
  cell protection: 100%
Human respiratory syncytial virus, compound added 1 hour post infection, 4 days at 37° C., read-out: EC50 (concentration that produces 50% cell protection)
  EC50: 3000 nM
